Assay results from the NIST ThermoML archive (doi:10.1016/j.jct.2016.09.030).

Experiment: xn = mol fraction of the nth substance listed
Details: 100 kPa, Liquid; for viscosity: Concentric cylinders viscometry; for mass density: Vibrating tube method

CCCCCCCC(=O)OCC [ethyl octanoate] + CC(C)CO
Details | mass density, 288.15 K [kg/m3] | mass density, 293.15 K [kg/m3] | mass density, 298.15 K [kg/m3] | mass density, 303.15 K [kg/m3] | viscosity, 288.15 K [mPa·s] | viscosity, 293.15 K [mPa·s] | viscosity, 298.15 K [mPa·s] | viscosity, 303.15 K [mPa·s]
x1 = 0.1001 | 817.82 | 813.83 | 809.81 | 805.76 | 3.229 | 2.762 | 2.416 | 2.111
x1 = 0.1999 | 827.81 | 823.71 | 819.58 | 815.43 | 2.537 | 2.22 | 1.961 | 1.74
x1 = 0.3 | 836.01 | 831.83 | 827.63 | 823.41 | 2.169 | 1.921 | 1.716 | 1.541
x1 = 0.4 | 843.08 | 838.85 | 834.6 | 830.32 | 1.977 | 1.768 | 1.592 | 1.44
x1 = 0.5 | 849.18 | 844.91 | 840.63 | 836.32 | 1.851 | 1.661 | 1.503 | 1.364
x1 = 0.5999 | 854.5 | 850.21 | 845.9 | 841.57 | 1.766 | 1.593 | 1.447 | 1.321
x1 = 0.6999 | 859.21 | 854.9 | 850.58 | 846.25 | 1.703 | 1.543 | 1.407 | 1.289
x1 = 0.7999 | 863.44 | 859.12 | 854.81 | 850.48 | 1.677 | 1.523 | 1.393 | 1.278
x1 = 0.9 | 867.3 | 862.98 | 858.67 | 854.35 | 1.677 | 1.524 | 1.393 | 1.283
x1 = 1 | 870.88 | 866.58 | 862.28 | 857.98 | 1.686 | 1.537 | 1.41 | 1.298
